In ChEMBL document CHEMBL1949630, “Discovery of benzodihydroisofurans as novel, potent, bioavailable and brain-penetrant prolylcarboxypeptidase inhibitors” (Bioorg Med Chem Lett, 2012):
The source made the active and inactive calls. No cut-off for these calls is given here.

Experiments:
[1] = target: T1, Lysosomal Pro-X carboxypeptidase (Mus musculus) (UniProt Q7TMR0); experiment: Inhibition of mouse PrCP in qd for 2 days po dosed established diet-induced obese C57BL/6 mouse heat inactivated plasma; type: organism-based
T1 sequence (whole entry): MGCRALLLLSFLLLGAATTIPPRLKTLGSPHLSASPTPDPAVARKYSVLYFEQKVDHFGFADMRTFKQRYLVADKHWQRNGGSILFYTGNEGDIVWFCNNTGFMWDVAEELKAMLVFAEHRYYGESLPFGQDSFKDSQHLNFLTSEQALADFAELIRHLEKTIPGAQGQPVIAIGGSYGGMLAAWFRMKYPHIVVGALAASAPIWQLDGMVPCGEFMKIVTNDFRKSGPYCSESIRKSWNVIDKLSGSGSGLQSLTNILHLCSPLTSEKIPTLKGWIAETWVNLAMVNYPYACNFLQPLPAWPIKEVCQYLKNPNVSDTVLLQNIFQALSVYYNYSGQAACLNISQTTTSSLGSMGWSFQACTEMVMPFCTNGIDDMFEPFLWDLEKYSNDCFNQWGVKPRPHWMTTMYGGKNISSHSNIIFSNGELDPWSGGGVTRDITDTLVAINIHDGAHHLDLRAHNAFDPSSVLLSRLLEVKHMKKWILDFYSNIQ

[2] = target: T2, Lysosomal Pro-X carboxypeptidase (Mus musculus, UniProt Q7TMR0); experiment: Inhibition of mouse PrCP
T2 sequence (Q7TMR0 whole entry): T1 sequence (whole entry)

[3] = target: T2, Lysosomal Pro-X carboxypeptidase; experiment: Inhibition of PrCP in mouse plasma assessed as angiotensin 3 cleavage by whole serum shift assay
[4] = Fraction unbound in human plasma; type: ADME, cell-free
[5] = Fraction unbound in mouse plasma; type: ADME, cell-free
[6] = Oral bioavailability in C57BL/6 mouse at 2 mg/kg by LC/MS/MS analysis; type: ADME, organism-based; conditions: in vivo
[7] = Oral bioavailability in rat at 2 mg/kg by LC/MS/MS analysis; type: ADME, organism-based; conditions: in vivo
[8] = Oral bioavailability in dog at 2 mg/kg by LC/MS/MS analysis; type: ADME, organism-based, Canis lupus familiaris; conditions: in vivo
[9] = Clearance in C57BL/6 mouse at 1 mg/kg, iv and 2 mg/kg, po by LC/MS/MS analysis; type: ADME, organism-based; conditions: in vivo
[10] = Clearance in rat at 1 mg/kg, iv and 2 mg/kg, po by LC/MS/MS analysis; type: ADME, organism-based; conditions: in vivo
[11] = Clearance in dog at 1 mg/kg, iv and 2 mg/kg, po by LC/MS/MS analysis; type: ADME, organism-based, Canis lupus familiaris; conditions: in vivo
[12] = Volume of distribution at steady state in C57BL/6 mouse at 1 mg/kg, iv and 2 mg/kg, po by LC/MS/MS analysis; type: ADME, organism-based; conditions: in vivo, read-out: Vdss
[13] = Volume of distribution at steady state in rat at 1 mg/kg, iv and 2 mg/kg, po by LC/MS/MS analysis; type: ADME, organism-based; conditions: in vivo, read-out: Vdss
[14] = Volume of distribution at steady state in dog at 1 mg/kg, iv and 2 mg/kg, po by LC/MS/MS analysis; type: ADME, organism-based, Canis lupus familiaris; conditions: in vivo, read-out: Vdss
[15] = Half life in C57BL/6 mouse at 1 mg/kg, iv and 2 mg/kg, po by LC/MS/MS analysis; type: ADME, organism-based; conditions: in vivo
[16] = Half life in rat at 1 mg/kg, iv and 2 mg/kg, po by LC/MS/MS analysis; type: ADME, organism-based; conditions: in vivo
[17] = Half life in dog at 1 mg/kg, iv and 2 mg/kg, po by LC/MS/MS analysis; type: ADME, organism-based, Canis lupus familiaris; conditions: in vivo
Mus musculus [18] = experiment: Dose normalized AUC in C57BL/6 mouse at 2 mg/kg by LC/MS/MS analysis; type: ADME, organism-based; parameters: dose 2 mg/kg; conditions: in vivo
Rattus norvegicus = experiment: Dose normalized AUC in rat at 2 mg/kg by LC/MS/MS analysis; type: ADME, organism-based; parameters: dose 2 mg/kg; conditions: in vivo
Canis familiaris = experiment: Dose normalized AUC in dog at 2 mg/kg by LC/MS/MS analysis; type: ADME, organism-based, Canis lupus familiaris; parameters: dose 2 mg/kg; conditions: in vivo
[19] = Ratio of drug level in brain to plasma in wild type CF1 mouse at 3 mg/kg, po after 4 hrs; type: ADME, organism-based; parameters: dose 3 mg/kg, route oral; conditions: brain and plasma, read-out: BPR
[20] = Ratio of drug level in brain to plasma in p-gp-/- mouse at 3 mg/kg, po after 4 hrs; type: ADME, organism-based; parameters: dose 3 mg/kg, route oral; conditions: brain and plasma, read-out: BPR
[21] = Drug uptake in established diet-induced obese C57BL/6 mouse blood at 3 mg/kg, po qd for 2 days; type: ADME, organism-based; parameters: dose 3 mg/kg, route oral; conditions: read-out: Drug uptake
[22] = Drug uptake in established diet-induced obese C57BL/6 mouse blood at 10 mg/kg, po qd for 2 days; type: ADME, organism-based; parameters: dose 10 mg/kg, route oral; conditions: read-out: Drug uptake
[23] = Drug uptake in established diet-induced obese C57BL/6 mouse blood at 30 mg/kg, po qd for 2 days; type: ADME, organism-based; parameters: dose 30 mg/kg, route oral; conditions: read-out: Drug uptake
[24] = Plasma concentration in established diet-induced obese C57BL/6 mouse at 3 mg/kg, po qd for 2 days; type: ADME, organism-based; parameters: dose 3 mg/kg, route oral
[25] = Plasma concentration in established diet-induced obese C57BL/6 mouse at 10 mg/kg, po qd for 2 days; type: ADME, organism-based; parameters: dose 10 mg/kg, route oral
[26] = Plasma concentration in established diet-induced obese C57BL/6 mouse at 30 mg/kg, po qd for 2 days; type: ADME, organism-based; parameters: dose 30 mg/kg, route oral
[27] = Drug uptake in established diet-induced obese C57BL/6 mouse brain at 3 mg/kg, po qd for 2 days; type: ADME, organism-based; parameters: dose 3 mg/kg, route oral; conditions: read-out: Drug uptake
[28] = Drug uptake in established diet-induced obese C57BL/6 mouse brain at 10 mg/kg, po qd for 2 days; type: ADME, organism-based; parameters: dose 10 mg/kg, route oral; conditions: read-out: Drug uptake
[29] = Drug uptake in established diet-induced obese C57BL/6 mouse brain at 30 mg/kg, po qd for 2 days; type: ADME, organism-based; parameters: dose 30 mg/kg, route oral; conditions: read-out: Drug uptake
[30] = target: T1, Lysosomal Pro-X carboxypeptidase (Mus musculus); experiment: Inhibition of mouse PrCP in 3 mg/kg, po administered qd for 2 days established diet-induced obese C57BL/6 mouse heat inactivated plasma; type: organism-based; parameters: dose 3 mg/kg; conditions: at 3 mg/kg
[31] = target: T1, Lysosomal Pro-X carboxypeptidase (Mus musculus); experiment: Inhibition of mouse PrCP in 10 mg/kg, po administered qd for 2 days established diet-induced obese C57BL/6 mouse heat inactivated plasma; type: organism-based; parameters: dose 10 mg/kg; conditions: at 10 mg/kg
[32] = target: T1, Lysosomal Pro-X carboxypeptidase (Mus musculus); experiment: Inhibition of mouse PrCP in 30 mg/kg, po administered qd for 2 days established diet-induced obese C57BL/6 mouse heat inactivated plasma; type: organism-based; parameters: dose 30 mg/kg; conditions: at 30 mg/kg
Mus musculus [33] = experiment: Antiobesity activity in established diet-induced obese C57BL/6 mouse assessed as reduction of body weight at 30 mg/kg, po qd for 5 days; type: functional, organism-based; parameters: dose 30 mg/kg
Mus musculus [34] = experiment: Antiobesity activity in PrCP knockout mouse assessed as reduction of body weight at 30 mg/kg, po qd for 5 days; type: functional, organism-based; parameters: dose 30 mg/kg
[35] = Plasma concentration in established diet-induced obese wild type C57BL/6 mouse at 30 mg/kg, po qd for 5 days measured on day 6; type: ADME, organism-based; parameters: dose 30 mg/kg, route oral
[36] = Plasma concentration in PrCP knockout mouse at 30 mg/kg, po qd for 5 days measured on day 6; type: ADME, organism-based; parameters: dose 30 mg/kg, route oral
[37] = Drug uptake in established diet-induced obese wild type C57BL/6 mouse brain at 30 mg/kg, po qd for 5 days measured on day 6; type: ADME, organism-based; parameters: dose 30 mg/kg, route oral; conditions: read-out: Drug uptake
[38] = Drug uptake in PrCP knockout mouse brain at 30 mg/kg, po qd for 5 days measured on day 6; type: ADME, organism-based; parameters: dose 30 mg/kg, route oral; conditions: read-out: Drug uptake
[39] = target: T1, Lysosomal Pro-X carboxypeptidase (Mus musculus); experiment: Inhibition of mouse PrCP in 30 mg/kg, po qd for 5 days established diet-induced obese wild type C57BL/6 mouse heat inactivated plasma measured on day 6; type: organism-based; parameters: dose 30 mg/kg; conditions: at 30 mg/kg
[40] = target: T1, Lysosomal Pro-X carboxypeptidase (Mus musculus); experiment: Inhibition of mouse PrCP in 30 mg/kg, po qd for 5 days established diet-induced obese wild type C57BL/6 mouse heat inactivated brain homogenates measured on day 6; type: organism-based; parameters: dose 30 mg/kg; conditions: at 30 mg/kg

FC(F)(F)Oc1ccc(CN2CCC3(CC2)OC(c2cc(Cl)ccn2)c2ccccc23)cc1 (configuration not stated)
inhibition [1]: Dose-dependent effect
IC50 [2]: 0.18 nM
IC50 [3]: 23 nM
fraction unbound [4]: < 0.0006
fraction unbound [5]: < 0.0006
bioavailability [6]: 35%
bioavailability [7]: 60%
bioavailability [8]: 88%
clearance [9]: 45 mL/min/kg
clearance [10]: 11 mL/min/kg
clearance [11]: 5.9 mL/min/kg
Vd [12]: 20 L/kg
Vd [13]: 5.9 L/kg
Vd [14]: 5.5 L/kg
half-life [15]: 6.7 h
half-life [16]: 8.9 h
half-life [17]: 14 h
AUC/dose (Mus musculus [18]): 0.28 µM·kg·h/mg
AUC/dose (Rattus norvegicus): 1.8 µM·kg·h/mg
AUC/dose (Canis familiaris): 5 µM·kg·h/mg
Kp at 4 h [19]: 0.94
Kp at 4 h [20]: 1.9
concentration at 48 h [21]: 80 nM
concentration at 48 h [22]: 280 nM
concentration at 48 h [23]: 590 nM
concentration at 48 h [24]: 50 nM
concentration at 48 h [25]: 240 nM
concentration at 48 h [26]: 520 nM
concentration at 48 h [27]: 30 nM
concentration at 48 h [28]: 110 nM
concentration at 48 h [29]: 520 nM
inhibition [30]: 53%
inhibition [31]: 82%
inhibition [32]: 93%
Activity (Mus musculus [33]): inactive
Activity (Mus musculus [34]): inactive
concentration at 120 h [35]: 1420 nM
concentration at 120 h [36]: 1570 nM
concentration at 120 h [37]: 690 nM
concentration at 120 h [38]: 820 nM
inhibition [39]: 88%
inhibition [40]: 61%
